Data taken from BindingDB's records for doi:10.1021/jm00029a008 (Dupont Pharmaceuticals, 1994).
Counter-ions that a name gives are not always drawn.

Columns and labels:
[1] = Binding affinity for sigma receptor of guinea pig whole brain using [3H]-[…] radioligand
[2] = biological target: D(2) dopamine receptor (guinea pig); assay: Binding affinity for dopamine D2 receptor using [3H]spiperone in guinea pig striatum

Row | Ki [1] | Ki [2] | Compound
1 |  | 344 nM | O=C1c2ccc(F)cc2CCC1C1CCN(CCc2ccccc2)CC1 (centres undefined) [6-Fluoro-2-(1-phenethyl-piperidin-4-yl)-3,4-dihydro-2H-naphthalen-1-one]
2 | 35 nM |  | O=C1c2ccc(Cl)cc2CCC12CCN(CCc1ccccc1)CC2 [6-chloro-1'-phenethylspiro[1,2,3,4-tetrahydronaphthalene-2,4'-(hexahydropyridine)]-1-one]
3 | 10 nM | 600 nM | O=C1c2ccccc2CCC1C1CCN(CCc2ccccc2)CC1 (centres undefined) [2-(1-Phenethyl-piperidin-4-yl)-3,4-dihydro-2H-naphthalen-1-one; hydrobromide]
4 | 26 nM |  | CC(C1CC1)N1CCC(C2CCc3ccccc3C2=O)CC1 (centres undefined) [2-[1-(1-Cyclopropyl-ethyl)-piperidin-4-yl]-3,4-dihydro-2H-naphthalen-1-one; hydrobromide]
5 | 5 nM |  | O=C1c2cccc(F)c2CCC1C1CCN(CCc2ccccc2)CC1 (centres undefined) [5-Fluoro-2-(1-phenethyl-piperidin-4-yl)-3,4-dihydro-2H-naphthalen-1-one; hydrochloride]
6 | 26 nM | 410 nM | CC(C)(C)c1ccc(CN2CCC(C3CCc4ccccc4C3=O)CC2)cc1 (centres undefined) [2-[1-(4-tert-Butyl-benzyl)-piperidin-4-yl]-3,4-dihydro-2H-naphthalen-1-one]
7 | 19 nM |  | O=C1c2ccccc2CCC1C1CCN(Cc2ccc(C(F)(F)F)cc2)CC1 (centres undefined) [2-[1-(4-Trifluoromethyl-benzyl)-piperidin-4-yl]-3,4-dihydro-2H-naphthalen-1-one; hydrochloride]
8 | 26 nM | 1080 nM | O=C1c2ccccc2CCC1C1CCN(CC2CC2)CC1 (centres undefined) [2-(1-Cyclopropylmethyl-piperidin-4-yl)-3,4-dihydro-2H-naphthalen-1-one; hydrobromide]
9 | 11 nM | 61 nM | O=C1c2ccccc2CCC1C1CCN(Cc2ccc(F)cc2)CC1 (centres undefined) [2-[1-(4-Fluoro-benzyl)-piperidin-4-yl]-3,4-dihydro-2H-naphthalen-1-one; hydrochloride]
10 | 8 nM |  | Cc1ccc(CN2CCC(C3CCc4ccccc4C3=O)CC2)cc1 (centres undefined) [2-[1-(4-Methyl-benzyl)-piperidin-4-yl]-3,4-dihydro-2H-naphthalen-1-one; hydrate]
11 | 7 nM |  | COc1ccc2c(c1)CCC(C1CCN(Cc3ccccc3)CC1)C2=O (centres undefined) [2-(1-Benzyl-piperidin-4-yl)-6-methoxy-3,4-dihydro-2H-naphthalen-1-one]
12 | 9 nM |  | O=C1c2ccc(Cl)cc2CCC1C1CCN(CCc2ccccc2)CC1 (centres undefined) [6-Chloro-2-(1-phenethyl-piperidin-4-yl)-3,4-dihydro-2H-naphthalen-1-one; hydrochloride]

Second part, the molecule before the results:

Row | Compound | Ki [1] | Ki [2]
13 | O=C1c2ccccc2CCC12CCN(Cc1ccc(F)cc1)CC2 [1'-(4-fluorobenzyl)spiro[1,2,3,4-tetrahydronaphthalene-2,4'-(hexahydropyridine)]-1-one; hydrochloride] | 4 nM | 
14 | O=C1c2ccccc2CCC1C1CCN(Cc2ccccc2)CC1 (centres undefined) [2-(1-Benzyl-piperidin-4-yl)-3,4-dihydro-2H-naphthalen-1-one; hydrochloride] | 4 nM | 1000 nM
15 | O=C1CCc2ccccc2C12CCN(CCc1ccccc1)CC2 [1'-phenethylspiro[1,2,3,4-tetrahydronaphthalene-1,4'-(hexahydropyridine)]-2-one] | 13 nM | > 10000 nM
16 | O=C1c2ccccc2CCC12CCN(Cc1ccc(C(F)(F)F)cc1)CC2 [1'-(4-trifluoromethylbenzyl)spiro[1,2,3,4-tetrahydronaphthalene-2,4'-(hexahydropyridine)]-1-one; malate] | 24 nM | 
17 | OC1CCc2ccccc2C12CCN(CCc1ccccc1)CC2 (centres undefined) [1'-phenethylspiro[1,2,3,4-tetrahydronaphthalene-1,4'-(hexahydropyridine)]-2-ol] |  | > 10000 nM
18 | COc1ccc(CN2CCC3(CCc4ccccc4C3=O)CC2)cc1 [1'-(4-methoxybenzyl)spiro[1,2,3,4-tetrahydronaphthalene-2,4'-(hexahydropyridine)]-1-one; hydrochloride] | 3 nM | 
19 | O=C1c2ccccc2CCC12CCN(CC1CCCCC1)CC2 [1'-cyclohexylmethylspiro[1,2,3,4-tetrahydronaphthalene-2,4'-(hexahydropyridine)]-1-one; hydrochloride] | 2 nM | 1170 nM
20 | O=C1c2ccccc2CCC12CCN(Cc1ccc3ccccc3c1)CC2 [1'-(2-naphthylmethyl)spiro[1,2,3,4-tetrahydronaphthalene-2,4'-(hexahydropyridine)]-1-one ;malate] | 11 nM | > 10000 nM
21 | O=C1c2ccc(F)cc2CCC1C1CCN(Cc2ccccc2)CC1 (centres undefined) [2-(1-Benzyl-piperidin-4-yl)-6-fluoro-3,4-dihydro-2H-naphthalen-1-one] | 9 nM | 62 nM
22 | CC(C)(C)c1ccc(CN2CCC3(CCc4ccccc4C3=O)CC2)cc1 [1'-[4-(tert-butyl)benzyl]spiro[1,2,3,4-tetrahydronaphthalene-2,4'-(hexahydropyridine)]-1-one; hydrochloride] | 15 nM | 
23 | O=C1c2ccccc2CCC12CCN(Cc1ccccc1)CC2 | 1 nM | 
24 | O=C1c2ccccc2CCC12CCN(Cc1ccc([N+](=O)[O-])cc1)CC2 [1'-(4-nitrobenzyl)spiro[1,2,3,4-tetrahydronaphthalene-2,4'-(hexahydropyridine)]-1-one; hydrochloride] | 1.9 nM | 1970 nM
